Data taken from patent publication US6034246A, “2-arylbenzazole compounds” (Cancer Research Campaign Technology Limited, priority 1995, dated 2000).

Assays:
SK-OV-3 = test: in vitro activity against human ovarian cell line SK-OV-3 (Table 2); assay type: cell-based
From the text: (§1) Tables 1 to 4 at the end of the present description show in vitro test results obtained in various sets of experiments for the cytotoxic activity of several of the benzazole compounds concerned, including also for reference results for the compound CJM 126 and comparative results for compound DF129, when tested against a range of tumor cell lines which includes ovarian, lung and certain colon and renal cancer cells from the National Cancer Institute (USA) collection. As usual the results are expressed in terms of IS50 values (concentration or dosage required to reduce cell growth or proliferation by 50%) calculated from dose-effect curves plotted for cultures of the cells in question.
(§2) In carrying out the in vitro studies, the cytotoxicity assays may be carried out by a method corresponding substantially to the following example: […]
(§3) On day 7 the test was terminated by the addition of 100 μl saline containing 0.002% w/v propidium iodide (Sigma), 0.3% drawing ink (Staedtler "Marsmatic 745"--Trade Mark) and 0.5% Triton X-100. The plates were kept at 4° C. overnight before reading on an inverted microscope equipped with an automated scanning stage. Fluorescence intensity was measured in arbitrary units by a photomultiplier. […]

Prostatic PC3 MAZ = test: in vitro inhibitory activity against human prostatic cell line PC3 MAZ (Table 3); assay type: cell-based
From the text: as §1, §2, §3

Renal ACHN = test: in vitro inhibitory activity against human renal cell line ACHN (Table 3); assay type: cell-based
From the text: as §1, §2, §3

MCF-7wt = test: in vitro inhibitory activity against human breast tumour cell line MCF-7wt (Table 4); assay type: cell-based; settings: initial seeding density 2.5 × 10^2 cells/well
From the text: as §1
(§4) In carrying out the in vitro studies, the cytotoxicity assays may be carried out by a method corresponding substantially to the following example:
(§5) Cells were maintained in a continuous logarithmic culture in Dublecco's medium supplemented with 10% fetal calf serum and penicillin (100 IU/ml) and streptomycin ([…]). The cells were mildly trypsinized for passage and for use in assays. On day zero, 100 μl of trypsinized tumor cells (1×10^4 /ml) were plated in the wells of 96-well flat-bottom microtiter plates. The plates were incubated for 2 days at 37° C. and 5% CO2 in air to allow the cells to adhere and resume exponential growth prior to the addition of drugs.
(§6) On day two 50 μl of the highest drug concentration was added to the wells of column 12 and from there serially diluted 3-fold to column 1 by serial transfer of 50 μl using an 8-channel micropipette. The final volume of column 1 was adjusted to 100 μl. No additions were made to the wells of rows A and B, which served as controls. The plates were further incubated for 5 days at 37° C. and 5% CO2 in air. Each compound was tested in duplicate.
(§7) On day 7 the test was terminated by the addition of 100 μl saline containing 0.002% w/v propidium iodide (Sigma), 0.3% drawing ink (Staedtler "Marsmatic 745"--Trade Mark) and 0.5% Triton X-100. The plates were kept at 4° C. overnight before reading on an inverted microscope equipped with an automated scanning stage. Fluorescence intensity was measured in arbitrary units by a photomultiplier. An HP-87 computer controlled the movement of the stage and also collected and processed the data from the multiplier.
(§8) For each compound tested a dose-response curve was obtained and the IC50 value (the drug concentration at 50% inhibition of cell growth) was calculated.
*Initial seeding density 2.5 × 10^2 cells/well

breast carcinoma BO = test: in vivo antitumor test, human breast carcinoma BO xenotransplanted in nude mice; settings: BO
Procedure: (§9) In one typical set of experiments, four human breast carcinomas xenotransplanted into female Ncr: nu/nu (Taconic, Germantown, U.S.A.) or male Bom: NMRI-nu/nu mice (Bomholtgaard, Ry, Denmark) were used for the evaluation of antitumor activity. Mice weighing 20-25 g at the start of experiments were held under sterile conditions at 24-26° C., 50% relative humidity and 12 hours light-dark rhythm in laminar flow shelves. The animals received autoclaved food and bedding; the drinking water was filtered and acidified (pH4.0).
The following breast carcinoma cell lines were used: BO; MCF-7 (NCI, U.S.A.); MT-1 and MT-3. The tumors BO and MCF-7 are ER^+ models: the carcinomas MT-1 and MT-3 are ER^- ones. Tumors were transplanted subcutaneously (s.c.) as pieces (2×2 mm) into the left flank of 5-8 nude mice/experimental group. Drug treatment was initiated when the tumors reached a diameter of 4-5 mm. Compounds were solubized with Tween 80 (maximum 10% of final volume) and suspended in saline. Suspensions were preparted freshly for each drug administration and injected in a volume of 0.2 mL/20 g body weight employing a once-weekly schedule (x3). Tumor size was measured twice weekly with a caliper. Median tumor volume/group was related to the first treatment day and expressed as Relative Tumor Volume (RTV). For the estimation of toxicity, body weight was determined twice weekly and the mean percentage body weight change (BCC) was calculated. In one experiment blood was obtained from the retroorbital venous plexus of mice and blood cells were determined with a Coulter counter (Model T41). […]

NCI-H226 = test: in vitro inhibition of growth of human lung cancer cell line NCI-H226 (Table 1); assay type: cell-based
From the text: as §1, §2, §3

L23/P = test: in vitro inhibition of growth of human lung cancer cell line L23/P (Table 1); assay type: cell-based
From the text: as §1, §4, §5, §6, §7, §8

A2780 = test: in vitro activity against human ovarian cell line A2780 (Table 2); assay type: cell-based; settings: Homo sapiens; A2780 (parental line)
From the text: As usual the results are expressed in terms of IS50 values (concentration or dosage required to reduce cell growth or proliferation by 50%) calculated from dose-effect curves plotted for cultures of the cells in question.
as §4, §5, §6
The plates were kept at 4° C. overnight before reading on an inverted microscope equipped with an automated scanning stage. Fluorescence intensity was measured in arbitrary units by a photomultiplier. An HP-87 computer controlled the movement of the stage and also collected and processed the data from the multiplier.

[1] = system: xenotransplanted breast carcinomas; test: in vivo activity in panel of xenotransplanted breast carcinomas; parameters: species or system human (xenotransplanted in nude mice); settings: words; DF203 panel of four, DF129 two carcinomas
Procedure: as §9
The following breast carcinoma cell lines were used: BO; MCF-7 (NCI, U.S.A.); MT-1 and MT-3. The tumors BO and MCF-7 are ER^+ models: the carcinomas MT-1 and MT-3 are ER^- ones. Tumors were transplanted subcutaneously (s.c.) as pieces (2×2 mm) into the left flank of 5-8 nude mice/experimental group. Drug treatment was initiated when the tumors reached a diameter of 4-5 mm. […] Tumor size was measured twice weekly with a caliper. Median tumor volume/group was related to the first treatment day and expressed as Relative Tumor Volume (RTV). For the estimation of toxicity, body weight was determined twice weekly and the mean percentage body weight change (BCC) was calculated. In one experiment blood was obtained from the retroorbital venous plexus of mice and blood cells were determined with a Coulter counter (Model T41).

Prostatic DU 145 = test: in vitro inhibitory activity against human prostatic cell line DU 145 (Table 3); assay type: cell-based
From the text: as §1, §2, §3

MCF-7B = test: in vitro inhibitory activity against human breast tumour cell line MCF-7B (Table 4); assay type: cell-based; settings: initial seeding density 2.5 × 10^2 cells/well
From the text: as §1, §4, §5
as §6, with “The plates were further incubated for 5 days at 37° C. and 5% CO2 in air. Each compound was tested in duplicate.” left out
as §3

MCF-7 = test: in vivo antitumor test, human breast carcinoma MCF-7 xenotransplanted in nude mice; settings: for evaluation / RTV, relative tumor volume (T/C %): qd 12, 19, 26; for RTV, relative tumor volume (T/C %): marked * significant versus control
Procedure: as §9
The following breast carcinoma cell lines were used: BO; MCF-7 (NCI, U.S.A.); MT-1 and MT-3. The tumors BO and MCF-7 are ER^+ models: the carcinomas MT-1 and MT-3 are ER^- ones. Tumors were transplanted subcutaneously (s.c.) as pieces (2×2 mm) into the left flank of 5-8 nude mice/experimental group. Drug treatment was initiated when the tumors reached a diameter of 4-5 mm. Compounds were solubized with Tween 80 (maximum 10% of final volume) and suspended in saline. Suspensions were preparted freshly for each drug administration and injected in a volume of 0.2 mL/20 g body weight employing a once-weekly schedule (x3). Tumor size was measured twice weekly with a caliper. Median tumor volume/group was related to the first treatment day and expressed as Relative Tumor Volume (RTV). For the estimation of toxicity, body weight was determined twice weekly and the mean percentage body weight change (BCC) was calculated. In one experiment blood was obtained from the retroorbital venous plexus of mice and blood cells were determined with a Coulter counter (Model T41).
Some of the in vivo test results are shown in Tables 5 and 6 at the end of the present description, and in FIG. 1 of the accompanying drawing which illustrates the results for measurements of in vivo activity of 2-(4'-amino-3'-methylphenyl) benzothiazole (DF203) against MCF7 in nude mice administered on days 12, 19 and 26.

OVCAR-4 = test: in vitro activity against human ovarian cell line OVCAR-4 (Table 2); assay type: cell-based
From the text: as §1, §2, §3

[2] = MCF-7, optimum dose 12.5 mg/Kg/inj i.p.
[3] = MCF-7, optimum dose 200 mg/Kg/inj i.p.

How did the IC50 (SK-OV-3) turn out when `Cc1cc(-c2nc3ccccc3s2)ccc1N` [DF203, 2-(4'-amino-3'-methylphenyl)benzothiazole] was run?
The IC50 was > 100 µM.

And the IC50 (Prostatic PC3 MAZ)?
The IC50 was > 100 µM.

And the IC50 (Renal ACHN)?
Its IC50 is ~100 µM.

What about the IC50 (MCF-7wt) of the same compound?
The IC50 was < 1 nM.

What about the evaluation (breast carcinoma BO; optimum dose 25 mg/Kg/inj i.p., qd 27, 34, 41) of the same compound?
The evaluation was “++ (T/C = 21-35%)”.

And the “RTV, relative tumor volume (T/C %)” value (breast carcinoma BO; optimum dose 25 mg/Kg/inj i.p., qd 27, 34, 41, marked * significant versus control)?
The value was 35%.

And the IC50 (NCI-H226)?
Its IC50 is 300 nM.

And the IC50 (L23/P)?
Its IC50 is 10 µM.

And the IC50 (A2780)?
The IC50 was > 100 µM.

And the “in vivo activity in xenotransplanted breast carcinomas” value [1]?
The value was “consistent tumor growth inhibition in all four tumors”.

And the IC50 (Prostatic DU 145)?
Its IC50 is > 100 µM.

And the IC50 (MCF-7B)?
The IC50 was 10 nM.

What about the evaluation (MCF-7; [2]) of the same compound?
Its evaluation is “++ (T/C = 21-35%)”.

And the “RTV, relative tumor volume (T/C %)” value (MCF-7; [2])?
Its value is 31%.

And the “tumor status of surviving animal” value (MCF-7; top dose 25 mg/Kg)?
Its value is “tumor free”.

And the IC50 (OVCAR-4)?
The IC50 was < 1000 nM.

With `Nc1ccc(-c2nc3ccccc3s2)cc1I` [DF129, 2-(4'-amino-3'-iodophenyl)benzothiazole] as the compound, how does the IC50 (SK-OV-3) read?
The IC50 was > 100 µM.

And the IC50 (Prostatic PC3 MAZ)?
Its IC50 is 54 µM.

What about the IC50 (Renal ACHN) of the same compound?
The IC50 was > 100 µM.

What about the IC50 (MCF-7wt) of the same compound?
The IC50 was < 1 nM.

And the “RTV, relative tumor volume (T/C %)” value (breast carcinoma BO; optimum dose 200 mg/Kg/inj i.p., qd 27, 34, 41 (Table 6), not marked significant)?
Its value is 97%.

What about the IC50 (NCI-H226) of the same compound?
The IC50 was 300 nM.

What about the IC50 (L23/P) of the same compound?
The IC50 was 0.1 µM.

And the IC50 (A2780)?
The IC50 was > 100 µM.

And the “in vivo activity in xenotransplanted breast carcinomas” value [1]?
The value was “only borderline activity in one of the models”.

What about the IC50 (Prostatic DU 145) of the same compound?
Its IC50 is 52 µM.

And the evaluation (MCF-7; [3])?
Its evaluation is “(+) (T/C % ≥ 51%)”.

What about the “RTV, relative tumor volume (T/C %)” value (MCF-7; [3]) of the same compound?
The value was 68%.

What about the IC50 (OVCAR-4) of the same compound?
Its IC50 is 200 nM.
